Columns and labels:
[1] = biological target: T1, Tyrosine-protein phosphatase non-receptor type 11 (Homo sapiens, UniProt Q06124); assay: Inhibition of H2N-LN(pY)IDLDLV-(dPEG80) LST(pY)-ASINFQK-amide-activated SHP2 (unknown origin) using DiFMUP as substrate incubated for 30 mins by fluorescence based assay
T1 sequence (Q06124 whole entry): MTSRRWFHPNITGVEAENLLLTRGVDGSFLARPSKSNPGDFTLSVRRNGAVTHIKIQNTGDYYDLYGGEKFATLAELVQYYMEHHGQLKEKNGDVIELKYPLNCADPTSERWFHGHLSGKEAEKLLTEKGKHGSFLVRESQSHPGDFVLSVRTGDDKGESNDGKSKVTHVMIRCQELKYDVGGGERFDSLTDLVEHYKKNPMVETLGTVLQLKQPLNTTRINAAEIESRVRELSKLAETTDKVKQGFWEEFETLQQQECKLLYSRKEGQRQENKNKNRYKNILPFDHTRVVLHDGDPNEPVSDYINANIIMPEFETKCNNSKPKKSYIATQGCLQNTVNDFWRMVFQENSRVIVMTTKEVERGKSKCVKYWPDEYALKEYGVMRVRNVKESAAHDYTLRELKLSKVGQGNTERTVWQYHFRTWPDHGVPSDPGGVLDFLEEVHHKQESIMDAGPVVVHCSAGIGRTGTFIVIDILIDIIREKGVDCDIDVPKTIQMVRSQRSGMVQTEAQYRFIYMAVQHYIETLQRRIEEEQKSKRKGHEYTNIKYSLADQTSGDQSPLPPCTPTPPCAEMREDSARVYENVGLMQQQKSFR

[2] = Inhibition of ERK phosphorylation in human KYSE520 cells incubated for 2 hrs by fluorescence based assay; assay type: cell-based; conditions: KYSE-520, 2 h
KYSE-520 cell line = assay: cells; conditions: Homo sapiens, KYSE-520, 72 h
Description: Antiproliferative activity against human KYSE520 cells measured after 72 hrs by Cell Titer-Glo assay

[3] = Toxicity in NU/NU mouse implanted with human KYSE520 cells assessed as abnormalities in heart at 25 mg/kg, po treated for 20 days by H and E staining based analysis; assay type: organism-based; conditions: in vivo, 480 h, time 20 day
[4] = Toxicity in NU/NU mouse implanted with human KYSE520 cells assessed as abnormalities in lung at 25 mg/kg, po treated for 20 days by H and E staining based analysis; assay type: organism-based; conditions: in vivo, 480 h, time 20 day
[5] = Toxicity in NU/NU mouse implanted with human KYSE520 cells assessed as drug tolerance at 25 mg/kg, po treated for 20 days; assay type: organism-based; conditions: in vivo, 480 h, time 20 day
[6] = Toxicity in NU/NU mouse implanted with human KYSE520 cells assessed as abnormalities in animal at 25 mg/kg, po treated for 20 days; assay type: organism-based; conditions: in vivo, 480 h, time 20 day
[7] = Toxicity in NU/NU mouse implanted with human KYSE520 cells assessed as body weight loss at 25 mg/kg, po treated for 20 days; assay type: organism-based; conditions: in vivo, 480 h, time 20 day
[8] = Toxicity in NU/NU mouse implanted with human KYSE520 cells assessed as abnormalities in spleen at 25 mg/kg, po treated for 20 days by H and E staining based analysis; assay type: organism-based; conditions: in vivo, 480 h, time 20 day
[9] = Toxicity in NU/NU mouse implanted with human KYSE520 cells assessed as abnormalities in kidney at 25 mg/kg, po treated for 20 days by H and E staining based analysis; assay type: organism-based; conditions: in vivo, 480 h, time 20 day
[10] = Toxicity in NU/NU mouse implanted with human KYSE520 cells assessed as abnormalities in liver at 25 mg/kg, po treated for 20 days by H and E staining based analysis; assay type: organism-based; conditions: in vivo, 480 h, time 20 day

IC50 [1] [nM]	IC50 [2] [nM]	IC50 (KYSE-520 cell line) [nM]	Compound	other results
434			NC1COCC12CCN(c1nc3ccc(Sc4ccnc5c4OC[C@@H]4CCCN54)nc3s1)CC2 (some centres undefined)	
68.1	175	1200	NC1COCC12CCN(c1nc3ccc(Sc4cccc(NC(=O)c5c(O)nc6ccccn6c5=O)c4Cl)nc3s1)CC2 (centres undefined)	
372			Nc1cccc(Sc2ccc3nc(N4CCCC(N)CC4)sc3n2)c1Cl (centres undefined)	
78.9			NC1COCC12CCN(c1ncc(Sc3ccnc4c3OC[C@@H]3CCCN43)c3nncn13)CC2 (some centres undefined)	
623			Nc1nccc(Sc2ccc3nc(N4CC5CC(C4)N5)sc3n2)c1Cl	
837			NC1COCC12CCN(c1nc3ccc(Sc4ccnc5c4OC[C@@H]4CCCN54)cc3s1)CC2 (some centres undefined)	
82.7	> 10000	> 10000	CCC1C(O)=C(C(=O)Nc2cccc(Sc3ccc4nc(N5CCC(C)(N)CC5)sc4n3)c2Cl)C(=O)N1C (centres undefined)	
70.2	2150	9250	NC1COCC12CCN(c1nc3ccc(Sc4cccc(NC(=O)C5=C(O)CN(c6ccccc6)C5=O)c4Cl)nc3s1)CC2 (centres undefined)	
	49	241	C[C@@H]1OCC2(CCN(c3cnc(Sc4ccnc(N)c4Cl)c(N)n3)CC2)[C@@H]1N [BATOPROTAFIB]	Activity [3]: Non-toxic; Activity [4]: Non-toxic; Activity [5]: Non-toxic; Activity [6]: Non-toxic; Activity [7]: Non-toxic; Activity [8]: Non-toxic; Activity [9]: Non-toxic; Activity [10]: Non-toxic
